One test deals with T1, HDAC1 (Homo sapiens, UniProt Q13547).
T1 construct: purchased Enzolifesciences BML-AK511
As to the kind of experiment: HDAC1 enzyme activity inhibition (HDAC1 fluorimetric drug discovery assay kit). To be noted: 37° C., 60 minutes; tested at 100, 1000 and 10000 nM. It is filed as biochemical. The method, then: 1. Experiment on Activities in HDAC Enzymes (HDAC1 and HDAC6)
Assays were performed using a HDAC1 fluorimetric drug discovery assay kit (Enzolifesciences: BML-AK511) and a HDAC6 human recombinant (Calbiochem: 382180). The assay mixture of the kit was treated with each of the compounds of the Examples at concentrations 100, 1000 and 10000 nM for HDAC1 assay and 0.1, 1, 10, 100 and 1000 nM for HDAC6 assay. The treated assay mixture was allowed to react at 37° C. for 60 minutes, and then was treated with a developer and allowed to stand at 37° C. for 30 minutes, followed by quantification of the fluorescence. In Table 17, lower HDAC6 values (μM) indicate higher HDAC6 inhibitory activities of the compounds. Also, because selective HDAC6 inhibitors should not inhibit HDAC1 (μM), higher HDAC1 values indicate higher HDAC6 selectivity of the compounds.

For the next test, the target named is T2, HDAC6 human recombinant (Homo sapiens, UniProt Q9UBN7).
T2 construct: purchased Calbiochem 382180
T2 sequence (Q9UBN7 1-1215): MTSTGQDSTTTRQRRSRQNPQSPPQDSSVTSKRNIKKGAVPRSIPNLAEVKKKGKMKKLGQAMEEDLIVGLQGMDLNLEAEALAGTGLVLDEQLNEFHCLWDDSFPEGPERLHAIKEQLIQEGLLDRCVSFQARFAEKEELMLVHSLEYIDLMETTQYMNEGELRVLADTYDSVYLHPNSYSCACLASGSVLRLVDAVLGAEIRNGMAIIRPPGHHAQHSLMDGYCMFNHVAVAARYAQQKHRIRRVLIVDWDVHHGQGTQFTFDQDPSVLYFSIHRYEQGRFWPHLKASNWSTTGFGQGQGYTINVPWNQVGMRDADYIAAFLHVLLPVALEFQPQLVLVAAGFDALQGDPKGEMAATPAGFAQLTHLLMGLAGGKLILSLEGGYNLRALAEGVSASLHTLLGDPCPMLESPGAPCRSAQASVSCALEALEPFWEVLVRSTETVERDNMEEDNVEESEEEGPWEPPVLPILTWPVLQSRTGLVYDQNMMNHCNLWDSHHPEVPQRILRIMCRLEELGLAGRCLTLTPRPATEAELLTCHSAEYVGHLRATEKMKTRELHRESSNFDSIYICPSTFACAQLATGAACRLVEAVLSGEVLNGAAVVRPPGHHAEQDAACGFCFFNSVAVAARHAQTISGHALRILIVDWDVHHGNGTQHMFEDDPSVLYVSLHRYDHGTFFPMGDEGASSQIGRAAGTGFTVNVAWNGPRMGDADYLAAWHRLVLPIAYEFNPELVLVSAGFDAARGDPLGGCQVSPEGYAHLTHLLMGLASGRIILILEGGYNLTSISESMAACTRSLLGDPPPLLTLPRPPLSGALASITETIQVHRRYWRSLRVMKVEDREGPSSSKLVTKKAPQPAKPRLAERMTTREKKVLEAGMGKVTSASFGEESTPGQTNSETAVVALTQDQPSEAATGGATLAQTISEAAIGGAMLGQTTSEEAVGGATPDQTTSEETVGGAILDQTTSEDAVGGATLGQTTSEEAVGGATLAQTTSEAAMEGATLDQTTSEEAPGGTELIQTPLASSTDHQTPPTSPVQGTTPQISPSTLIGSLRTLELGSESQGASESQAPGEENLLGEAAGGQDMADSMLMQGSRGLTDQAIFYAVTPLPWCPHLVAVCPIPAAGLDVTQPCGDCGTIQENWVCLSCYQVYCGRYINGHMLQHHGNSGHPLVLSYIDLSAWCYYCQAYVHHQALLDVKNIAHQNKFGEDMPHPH
The test is described as follows: HDAC6 enzyme activity inhibition (fluorimetric, in vitro). Format: biochemical. To be noted: 37° C., 60 minutes; tested at 0.1, 1, 10, 100 and 1000 nM. The method, boiled down:
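Fluorimetric deacetylase assay using an HDAC1 kit and human recombinant HDAC6. Compounds tested at 100–10000 nM (HDAC1) or 0.1–1000 nM (HDAC6), reacted 60 min at 37 °C, then developer 30 min at 37 °C before fluorescence read. Values in μM.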

Among the data in patent US20160355475A1, “NOVEL INDOLE DERIVATIVE COMPOUND AND PHARMACEUTICAL COMPOSITION COMPRISING THE SAME” (CHONG KUN DANG PHARMACEUTICAL CORP., priority 2014, published 2016) are IC50 values, retold here.

T1 sequence (Q13547 whole entry): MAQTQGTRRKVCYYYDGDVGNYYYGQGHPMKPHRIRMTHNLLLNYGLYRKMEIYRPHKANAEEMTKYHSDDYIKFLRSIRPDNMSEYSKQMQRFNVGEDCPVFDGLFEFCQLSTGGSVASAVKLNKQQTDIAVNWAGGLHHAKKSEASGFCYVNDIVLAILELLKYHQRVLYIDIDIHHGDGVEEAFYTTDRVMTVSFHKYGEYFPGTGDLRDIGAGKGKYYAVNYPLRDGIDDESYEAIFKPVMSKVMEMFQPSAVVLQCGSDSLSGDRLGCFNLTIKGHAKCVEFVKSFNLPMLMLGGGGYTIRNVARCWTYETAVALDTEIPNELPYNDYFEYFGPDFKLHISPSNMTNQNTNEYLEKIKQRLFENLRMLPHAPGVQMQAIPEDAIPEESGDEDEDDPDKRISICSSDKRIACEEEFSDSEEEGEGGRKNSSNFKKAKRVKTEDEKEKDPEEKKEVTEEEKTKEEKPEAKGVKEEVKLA

Take `CC(C)(F)CN1CCC(Cn2c(-c3cc(F)cc(F)c3)c(Cc3ccc(C(=O)NO)cc3)c3ccccc32)CC1` [Compound 626, 4-((2-(3,5-Difluorophenyl)-1-((1-(2-fluoro-2-methylpropyl)piperidin-4-yl)methyl)-1H-indol-3-yl)methyl)-N-hydroxybenzamide]: the figures for the IC50 on HDAC1 and at HDAC6 human recombinant were more than 10 µM and 587 nM, respectively.

Regarding `Cc1c(Cc2ccc(C(=O)NO)cc2)c2ccccc2n1CC1CCN(Cc2cccc(F)c2)CC1` [Compound 631, 4-((1-((1-(3-Fluorobenzyl)piperidin-4-yl)methyl)-2-methyl-1H-indol-3-yl)methyl)-N-hydroxybenzamide], the figures for the IC50 on HDAC1 and at HDAC6 human recombinant were more than 10 µM and 1360 nM, respectively.

Regarding `Cc1c(Cc2ccc(C(=O)NO)cc2)c2ccccc2n1CC1CCN(Cc2cccnc2)CC1` [Compound 632, N-hydroxy-4-((2-methyl-1-((1-(pyridin-3-ylmethyl)piperidin-4-yl)methyl)-1H-indol-3-yl)methyl)benzamide], the IC50 worked out at 1.79 µM against HDAC1 and 63 nM at HDAC6 human recombinant.

With `Cc1c(Cc2ccc(C(=O)NO)cc2)c2ccccc2n1CCN1C[C@@H](C)N(CC(C)(C)F)[C@@H](C)C1` [Compound 633, 4-((1-(2-((3S,5R)-4-(2-fluoro-2-methylpropyl)-3,5-dimethylpiperazin-1-yl)ethyl)-2-methyl-1H-indol-3-yl)methyl)-N-hydroxybenzamide], the IC50 against HDAC1 turned out to be 1.76 µM; on HDAC6 human recombinant it was 75 nM.

In the case of `Cc1c(Cc2ccc(C(=O)NO)cc2)c2ccccc2n1CCCCN1CCN(CC(C)(C)F)CC1` [Compound 639, 4-((1-(4-(4-(2-Fluoro-2-methylpropyl)piperazin-1-yl)butyl)-2-methyl-1H-indol-3-yl)methyl)-N-hydroxybenzamide], the IC50 on HDAC1 amounted to 4.98 µM; at HDAC6 human recombinant it was 76 nM.

Consider `Cc1c(Cc2ccc(C(=O)NO)cc2)c2ccccc2n1CCCN1CCN(CC(C)(C)F)CC1` [Compound 640, 4-((1-(3-(4-(2-Fluoro-2-methylpropyl)piperazin-1-yl)propyl)-2-methyl-1H-indol-3-yl)methyl)-N-hydroxybenzamide], for which the IC50 was found to be 7.6 µM against HDAC1 and 115 nM at HDAC6 human recombinant.

As to `Cc1c(Cc2ccc(C(=O)NO)cc2)c2ccccc2n1CC1CCN(CC2(C)COC2)CC1` [Compound 643, N-hydroxy-4-((2-methyl-1-((1-((3-methyloxetan-3-yl)methyl)piperidin-4-yl)methyl)-1H-indol-3-yl)methyl)benzamide], the half-inhibitory concentration (IC50) is 4.58 µM at HDAC1 and 28 nM on HDAC6 human recombinant.

Consider `Cc1c(Cc2ccc(C(=O)NO)cc2)c2ccccc2n1CC1CCN(CC2(F)CCN(C)CC2)CC1` [Compound 679, 4-((1-((1-((4-Fluoro-1-methylpiperidin-4-yl)methyl)piperidin-4-yl)methyl)-2-methyl-1H-indol-3-yl)methyl)-N-hydroxybenzamide], for which the concentration for half-maximal inhibition (IC50) against HDAC1 stood at 0.832 µM; at HDAC6 human recombinant, 13 nM.

As for `Cc1c(Cc2ccc(C(=O)NO)cc2)c2ccccc2n1CC1CCN(CC2(F)CCN(C(C)C)CC2)CC1` [Compound 681, 4-((1-((1-((4-Fluoro-1-isopropylpiperidin-4-yl)methyl)piperidin-4-yl)methyl)-2-methyl-1H-indol-3-yl)methyl)-N-hydroxybenzamide], the figures for the IC50 on HDAC1 and on HDAC6 human recombinant were 0.802 µM and 37 nM, respectively.

With `Cc1c(Cc2ccc(C(=O)NO)cc2)c2ccccc2n1CC1CCN(CC2(F)CCN(S(C)(=O)=O)CC2)CC1` [Compound 696, 4-((1-((1-((4-Fluoro-1-(methylsulfonyl)piperidin-4-yl)methyl)piperidin-4-yl)methyl)-2-methyl-1H-indol-3-yl)methyl)-N-hydroxybenzamide], the IC50 against HDAC1 is more than 10 µM; at HDAC6 human recombinant it was 123 nM.

Consider `Cc1c(Cc2ccc(C(=O)NO)cc2)c2ccccc2n1CC1CCN(CC2(F)CCCCC2)CC1` [Compound 698, 4-((1-((1-((1-Fluorocyclohexyl)methyl)piperidin-4-yl)methyl)-2-methyl-1H-indol-3-yl)methyl)-N-hydroxybenzamide], for which the figures for the IC50 against HDAC1 and at HDAC6 human recombinant were more than 10 µM and 430 nM, respectively.

As to `Cc1c(Cc2ccc(C(=O)NO)cc2)c2ccccc2n1CC1CCN(CC(C)(C)F)C1` (centres unmarked) [Compound 713, 4-((1-((1-(2-Fluoro-2-methylpropyl)pyrrolidin-3-yl)methyl)-2-methyl-1H-indol-3-yl)methyl)-N-hydroxybenzamide], the IC50 at HDAC1 was more than 10 µM; on HDAC6 human recombinant it was 246 nM.

Regarding `Cc1c(Cc2ccc(C(=O)NO)cc2)c2ccccc2n1CC1CCN(CC2(C(F)(F)F)CCC2)CC1` [Compound 728, N-hydroxy-4-((2-methyl-1-((1-((1-(trifluoromethyl)cyclobutyl)methyl)piperidin-4-yl)methyl)-1H-indol-3-yl)methyl)benzamide], the values for the IC50 at HDAC1 and on HDAC6 human recombinant were more than 10 µM and 1190 nM, respectively.

Consider `CC(C)(F)CN1CCC(Cn2cc(C(O)c3ccc(C(=O)NO)cc3)c3cccnc32)CC1` (centres unmarked) [Compound 747, 4-((1-((1-(2-Fluoro-2-methylpropyl)piperidin-4-yl)methyl)-1H-pyrrolo[2,3-b]pyridin-3-yl)(hydroxy)methyl)-N-hydroxybenzamide], for which the IC50 against HDAC1 was 6.1 µM; on HDAC6 human recombinant, 334 nM.

Turning to `CC(C)(F)CN1CCC(Cn2cc(Cc3ccc(C(=O)NO)cc3)c3cccnc32)CC1` [Compound 748, 4-((1-((1-(2-Fluoro-2-methylpropyl)piperidin-4-yl)methyl)-1H-pyrrolo[2,3-b]pyridin-3-yl)methyl)-N-hydroxybenzamide], the IC50 came to 3.88 µM on HDAC1 and 140 nM at HDAC6 human recombinant.

`Cc1c(Cc2ccc(C(=O)NO)cc2)c2ccccc2n1CC1CN(CC2(F)COC2)C1` [Compound 749, 4-((1-((1-((3-Fluorooxetan-3-yl)methyl)azetidin-3-yl)methyl)-2-methyl-1H-indol-3-yl)methyl)-N-hydroxybenzamide]: the IC50 amounted to 8.59 µM against HDAC1 and 92 nM on HDAC6 human recombinant.

The term IC50 denotes the concentration that inhibits the measured activity by half.
